Measured values taken from US8450308B2 (Vitae Pharmaceuticals, Inc., priority 2008, dated 2013).

biological target: T1, truncated human beta-secretase (residues 1-458, His6-tagged at the C-terminus) (Homo sapiens, UniProt P56817); assay: BACE fluorescence quench assay; format: biochemical; conditions: not given
T1 construct: truncated human beta-secretase (residues 1-458, His6-tagged at the C-terminus); His6 (C); made in house; host or cells: insect cells D. melanogaster S2 (baculovirus expression system (so in the source))
T1 sequence (P56817 22-458): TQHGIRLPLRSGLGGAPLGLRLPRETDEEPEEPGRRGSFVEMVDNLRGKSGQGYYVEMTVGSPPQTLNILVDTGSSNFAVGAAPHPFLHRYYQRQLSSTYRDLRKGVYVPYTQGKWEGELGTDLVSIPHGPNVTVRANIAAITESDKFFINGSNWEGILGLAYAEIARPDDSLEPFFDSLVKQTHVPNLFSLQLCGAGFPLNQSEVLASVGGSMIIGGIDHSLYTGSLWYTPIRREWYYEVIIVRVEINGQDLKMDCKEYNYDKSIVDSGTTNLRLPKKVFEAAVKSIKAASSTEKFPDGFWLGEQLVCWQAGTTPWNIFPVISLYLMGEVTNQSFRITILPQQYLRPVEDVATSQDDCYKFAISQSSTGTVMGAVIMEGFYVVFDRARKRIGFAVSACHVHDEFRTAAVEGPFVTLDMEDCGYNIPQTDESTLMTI

SMILES | IC50
CN1C(=O)C2(CC(c3ccccc3)Oc3ccc(-c4ccc(S(C)(=O)=O)cc4)cc32)N=C1N (stereo not drawn) [Compound 49, 2′-amino-1′-methyl-6-(4-(methylsulfonyl)phenyl)-2-phenylspir-o[chroman-4,4′-imidazol]-5′(1′H)-one] | 5000 to 10000 nM
CCN(CC)C(=O)c1ccc(-c2ccc3c(c2)C2(CC(c4ccccc4)O3)N=C(N)N(C)C2=O)cc1 (stereo not drawn) [Compound 71, 4-(2′-amino-1′-methyl-5′-oxo-2-phenyl-1′,5′-dihydro-spiro[chroman-4,4′-imidazole]-6-yl)-N,N-diethylbenzamide] | 10000 to 50000 nM
COCc1ccc(-c2ccc3c(c2)C2(CC(c4ccccc4)O3)N=C(N)N(C)C2=O)cc1 (stereo not drawn) [Compound 54, 2′-amino-6-(4-(methoxymethyl)phenyl)-1′-methyl-2-phenylspiro[chroman-4,4′-imidazol]-5′(1′H)-one] | 10000 to 50000 nM
CN1C(=O)C2(CC(c3ccccc3)Oc3ccc(-c4ccc(F)c(C(=O)NCCO)c4)cc32)N=C1N (stereo not drawn) [Compound 40, 5-(2′-amino-1′-methyl-5′-oxo-2-phenyl-1′,5′-dihydrospiro[chroman-4,4′-imidazole]-6-yl)-2-fluoro-N-(2-hydroxyethyl)benzamide] | 1000 to 5000 nM
CN1C(=O)C2(CC(c3ccccc3)Oc3ccc(-c4ccc(F)c(C#N)c4)cc32)N=C1N (stereo not drawn) [Compound 4, 5-(2′-amino-1′-methyl-5′-oxo-2-phenyl-1′,5′-dihydrospiro[chroman-4,4′-imidazole]-6-yl)-2-fluorobenzonitrile] | 100 to 500 nM
CN1C(=O)C2(CC(c3ccccc3)Oc3ccc(-c4cccnc4)cc32)N=C1N (stereo not drawn) [Compound 15, 2′-amino-1′-methyl-2-phenyl-6-(pyridin-3-yl)spiro[chroman-4,4′-imidazol]-5′(1′H)-one] | 500 to 1000 nM
CC(=O)Nc1cccc(-c2ccc3c(c2)C2(CC(c4ccccc4)O3)N=C(N)N(C)C2=O)c1 (stereo not drawn) [Compound 41, N-(3-(2′-amino-1′-methyl-5′-oxo-2-phenyl-1′,5′-dihydrospiro[chroman-4,4′-imidazole]-6-yl)phenyl)acetamide] | 1000 to 5000 nM
C=Cc1cccc(-c2ccc3c(c2)C2(CC(c4ccccc4)O3)N=C(N)N(C)C2=O)c1 (stereo not drawn) [Compound 22, 2′-amino-1′-methyl-2-phenyl-6-(3-vinylphenyl)spiro[chroman-4,4′-imidazol]-5′(1′H)-one] | 1000 to 5000 nM

same assay, conditions: in vitro enzyme activity, BACE fluorescence assay, pH 4.5; read-out: IC50

SMILES | IC50
CN1C(=O)C2(CC3(CCCCCC3)Oc3ccc(-c4cccc(C#N)c4)cc32)N=C1N (stereo not drawn) [Compound 78] | 500 to 1000 nM
CC1CC[C@]2(CO1)C[C@]1(N=C(N)N(C)O1)c1cc(-c3cc(Cl)cc(Cl)c3)ccc1O2 (stereo partly drawn) [Compound 371] | 500 to 1000 nM
CN1C(=O)[C@@]2(C[C@@]3(CCCOC3)Oc3ccc(-c4cc(C#N)cc(C(F)(F)F)c4)cc32)N=C1N [Compound 304] | 100 to 500 nM
CN1C(=O)C2(CC(c3cccc(F)c3F)Oc3ccc(Br)cc32)N=C1N (stereo not drawn) [Compound 42] | 5000 to 10000 nM
CN1OC2(CC(C3CCCC3)Oc3ccc(-c4cccc(C#N)c4)cc32)N=C1N (stereo not drawn) [Compound 99] | 1000 to 5000 nM
CN1C(=O)[C@@]2(C[C@@]3(CCCOC3)Oc3ccc(-c4cc(C#N)ccc4C(F)(F)F)cc32)N=C1N [Compound 449] | 10000 to 50000 nM
CC(=O)c1cccc(-c2ccc3c(c2)[C@]2(C[C@@]4(CCCOC4)O3)N=C(N)N(C)C2=O)c1 [Compound 427] | 1000 to 5000 nM
CN1OC2(CC(C3CCOC(C)(C)C3)Oc3ccc(-c4cc(F)cc(F)c4)cc32)N=C1N (stereo not drawn) [Compound 339] | 100 to 500 nM
CN1C(=O)C2(CC(C3CCCCC3)Oc3ccc(-c4cccc(C#N)c4)cc32)N=C1N (stereo not drawn) [Compound 3, 3-(2′-amino-2-cyclohexy-1′-methyl-5′-oxo-1′,5′-dihydrospiro[chroman-4,4′-imidazole]-6-yl)benzonitrile] | 100 to 500 nM
COC1CCC2(CC1)CC1(N=C(N)N(C)O1)c1cc(-c3cccc(C#N)c3)ccc1O2 (stereo not drawn) [Compound 388] | 1000 to 5000 nM
CCN1C(=O)C2(CC(c3ccccc3)Oc3ccc(Br)cc32)N=C1N (stereo not drawn) [Compound 69, 2′-amino-6-bromo-1′-ethyl-2-phenylspiro[chroman-4,4′-imidazol]-5′(1′H)-one] | 10000 to 50000 nM
CN1C(=O)[C@@]2(C[C@@]3(CCCOC3)Oc3ccc(-c4cccc(Br)c4)cc32)N=C1N [Compound 336] | 100 to 500 nM
CN1C(=O)C2(CC(c3ccc(Cl)cc3)Oc3ccc(-c4cccc(C#N)c4)cc32)N=C1N (stereo not drawn) [Compound 6] | 100 to 500 nM
CC(C)=CC(CCO)[C@@H]1C[C@@]2(N=C(N)N(C)O2)c2cc(-c3cc(F)cc(F)c3)ccc2O1 (stereo partly drawn) [Compound 444] | 5000 to 10000 nM
N#Cc1cccc(-c2ccc3c(c2)C2(CC(c4ccccc4)O3)N=C(N)N(CC3CCCCC3)C2=O)c1 (stereo not drawn) [Compound 18, 3-(2′-amino-1′-(cyclohexylmethyl)-5′-oxo-2-phenyl-1′,5′-dihydrospiro[chroman-4,4′-imidazole]-6-yl)benzonitrile] | 500 to 1000 nM
CC(C)=CC(CCO)C1CC2(N=C(N)N(C)O2)c2cc(-c3cc(F)cc(Cl)c3)ccc2O1 (stereo not drawn) [Compound 404] | 1000 to 5000 nM
COc1cc(F)cc(-c2ccc3c(c2)[C@]2(C[C@@]4(CCCOC4)O3)N=C(N)N(C)C2=O)c1 [Compound 328] | 100 to 500 nM
CN1OC2(CC3(CCCC(c4ccccc4)C3)Oc3ccc(-c4cccc(C#N)c4)cc32)N=C1N (stereo not drawn) [Compound 415] | 1000 to 5000 nM
CN1C(=O)C2(CC(c3ccc(Cl)cc3)Oc3ccc(Br)cc32)N=C1N (stereo not drawn) [Compound 53, 2′-amino-6-bromo-2-(4-chlorophenyl)-1′-methylspiro[chroman-4,4′-imidazol]-5′(1′H)-one] | 10000 to 50000 nM
CCOc1ccc(Cl)cc1-c1ccc2c(c1)[C@]1(C[C@]3(CCCOC3)O2)N=C(N)N(C)C1=O [Compound 342] | 100 to 500 nM
CN1C(=O)C2(C[C@H]([C@@H]3CCOC(C)(C)C3)Oc3ccc(-c4cccc(C#N)c4)cc32)N=C1N (stereo partly drawn) [Compound 453] | 10000 to 50000 nM
CCOc1cccc(-c2ccc3c(c2)C2(CC4(CCCOC4)O3)N=C(N)N(C)O2)c1 (stereo not drawn) [Compound 124] | 5000 to 10000 nM
CCN1C(=O)C2(CC(c3ccccc3)Oc3ccc(-c4cccc(C#N)c4)cc32)N=C1N (stereo not drawn) [Compound 12, 3-(2′-amino-1′-ethyl-5′-oxo-2-phenyl-1′,5′-dihydrospiro[chroman-4,4′-imidazole]-6-yl)benzonitrile] | 100 to 500 nM

SMILES | IC50
CN1O[C@]2(C[C@@H](C[C@@H]3CCCO3)Oc3ccc(-c4cccc(C#N)c4)cc32)N=C1N (stereo in doubt) [Compound 367, 3-(3′-amino-2′-methyl-2-((tetrahydrofuran-2-yl)methyl)-2′H-spiro[chroman-4,5′-[1,2,4]oxadiazole]-6-yl)benzonitrile] | 500 to 1000 nM
CN1C(=O)C2(CC(c3ccccc3)Oc3ccc(-c4cccc(C#N)c4)cc32)N=C1N (stereo not drawn) [Compound 2, 3-(2′-amino-1′-methyl-5′-oxo-2-phenyl-1′,5′-dihydrospiro[chroman-4,4′-imidazole]-6-yl)benzonitrile] | 100 to 500 nM
CC1CC(C)CC2(C1)CC1(N=C(N)N(C)C1=O)c1cc(-c3cccc(C#N)c3)ccc1O2 (stereo not drawn) [Compound 83] | 1000 to 5000 nM
CN1OC2(CC(C3CCOC(C)(C)C3)Oc3ccc(-c4cccc(F)c4)cc32)N=C1N (stereo not drawn) [Compound 343] | 100 to 500 nM
CN1C(=O)[C@@]2(C[C@]3(CCCOC3)Oc3ccc(-c4cccc(-n5cccc5)n4)cc32)N=C1N [Compound 424] | 1000 to 5000 nM
CN1O[C@@]2(C[C@@H]([C@@H]3CCOC(C)(C)C3)Oc3ccc(-c4cccc(C#N)c4)cc32)N=C1N [Compound 285] | 100 to 500 nM
COCCCOc1cccc(-c2ccc3c(c2)C2(CC4(CCCOC4)O3)N=C(N)N(C)O2)c1 (stereo not drawn) [Compound 128] | 10000 to 50000 nM
CN1OC2(CC(C3CCOC(C)(C)C3)Oc3ccc(-c4cccc(-n5cccc5)n4)cc32)N=C1N (stereo not drawn) [Compound 445] | 5000 to 10000 nM
CN1C(=O)C2(CC3(CCCOC3)Oc3ccc(-c4cc(F)cc(F)c4F)cc32)N=C1N (stereo not drawn) [Compound 346] | 500 to 1000 nM
CN1OC2(CC(C3CC(C)(C)OC(C)(C)C3)Oc3ccc(-c4cccc(C#N)c4)cc32)N=C1N (stereo not drawn) [Compound 327] | 100 to 500 nM
CCCCNC(=O)c1cccc(-c2ccc3c(c2)[C@]2(C[C@H](c4ccccc4)O3)N=C(N)N(C)C2=O)c1 [Compound 55a, 3-((2R,4S)-2′-amino-1′-methyl-5′-oxo-2-phenyl-1′,5′-dihydrospiro[chroman-4,4′-imidazole]-6-yl)-N-butylbenzamide] | 10000 to 50000 nM
CN1O[C@@]2(C[C@@]3(CCOC3)Oc3ccc(-c4cccc(C#N)c4)cc32)N=C1N (relative stereo) [Compound 113a] | 500 to 1000 nM
CC(C)=CC(CC(C)(C)O)C1CC2(N=C(N)N(C)O2)c2cc(-c3cccc(C#N)c3)ccc2O1 (stereo not drawn) [Compound 401] | 1000 to 5000 nM
CN1OC2(N=C1N)c1cc(-c3cccc(C#N)c3)ccc1OC1(CCCOC1)C2F (stereo not drawn) [Compound 109] | 100 to 500 nM
Cc1ccc(C#N)cc1-c1ccc2c(c1)C1(CC(C3CCOC(C)(C)C3)O2)N=C(N)N(C)O1 (stereo not drawn) [Compound 292] | 100 to 500 nM
CN1C(=O)[C@@]2(C[C@]3(CCCOC3)Oc3ccc(-c4ccc5cn[nH]c5c4)cc32)N=C1N [Compound 433] | 5000 to 10000 nM
CC(C)=CC(CCO)C1CC2(N=C(N)N(C)O2)c2cc(-c3ccc(F)c(F)c3)ccc2O1 (stereo not drawn) [Compound 456] | 10000 to 50000 nM
CN1OC2(CC3(CCCC4CCCCC43)Oc3ccc(-c4cccc(C#N)c4)cc32)N=C1N (stereo not drawn) [Compound 443] | 5000 to 10000 nM
CCOc1ccc(Cl)cc1-c1ccc2c(c1)[C@]1(C[C@@]3(CCCOC3)O2)N=C(N)N(C)C1=O [Compound 378] | 1000 to 5000 nM
CN1C(=O)C2(CC(c3ccc(F)cc3)Oc3ccc(-c4cccc(C#N)c4)cc32)N=C1N (stereo not drawn) [Compound 19, 3-(2′-amino-2-(4-fluorophenyl)-1′-methyl-5′-oxo-1′,5′-dihydrospiro[chroman-4,4′-imidazole]-6-yl)benzonitrile] | 500 to 1000 nM
CN1OC2(N=C1N)c1cc(-c3cccc(C#N)c3)ccc1OC1(CCCOC1)C2(F)F (stereo not drawn) [Compound 112] | 500 to 1000 nM
CC(C)=CC(CCO)C1CC2(N=C(N)N(C)O2)c2cc(-c3cc(C#N)ccc3C)ccc2O1 (stereo not drawn) [Compound 425] | 1000 to 5000 nM
CC(C)=CC(CCO)C1CC2(N=C(N)N(C)O2)c2cc(-c3cccc(F)c3)ccc2O1 (stereo not drawn) [Compound 436] | 5000 to 10000 nM
